According to article PMC10812467, “Peroxidasin Inhibition by Phloroglucinol and Other Peroxidase Inhibitors” (Antioxidants, 2023):
Where two headings read alike, the source gives them in different places. Each block holds one molecule with its values, some of them ahead of it.

Experiments:
[1] = tested on: collagen IV NCD sulfilimine cross-link formation in isolated ECM from PFHR9 cells; assay: Inhibition of collagen IV cross-linking in decellularized extracellular matrix; type: biochemical
Protocol: (§1) PFHR9 cells (ATCC) were grown in Dulbecco’s Modified Eagle Medium (Gibco), supplemented with 10% heat-inactivated foetal bovine serum (Moregate) and 1% Penicillin Streptomycin (Gibco). As described previously, cells were seeded in 150 mm cell culture dishes and ECM was isolated. The concentration of the isolated ECM protein was measured (Direct Detect) and the yield was typically ~5 mg per dish. […] After 10 min, 100 μM bromide was added and the cross-link formation was started by adding 100 μM hydrogen peroxide. After 1 h at 37 °C, the reaction was stopped, by adding 1 mM sodium azide, and ECM was digested with 2 mg mL^−1 of collagenase type I (Worthington) for 48 h at 37 °C. The digest was spun (20 kg, RT, 20 min) and the extent of cross-linking of the NCD of collagen IV was determined by the resolution of the supernatant protein on a 12% sodium dodecyl-sulfate polyacrylamide gel electrophoresis (SDS-PAGE). […] Densitometric analyses of both dimer bands (Alliance Uvitec Cambridge imager) were used to determine the extent of inhibition of the cross-link formation. […] Once full confluence was reached, the medium was changed daily, and inhibitors were added at the indicated concentrations in 1 mL of medium for 7 days.

[2] = tested on: collagen IV NCD sulfilimine cross-link formation of PFHR9 cells; assay: Inhibition of collagen IV cross-linking in cell culture; type: cell-based; details: PFHR9 cells grown with inhibitor for 7 days, Western blot densitometry, n.a. = 50% inhibition not reached
Protocol: as §1

PXDN Compound I = molecular target: T1, PXDN Compound I (Homo sapiens, UniProt Q92626); assay: Sequential stopped-flow spectroscopy of PXDN Compound I with inhibitors; type: biochemical; details: 1 μM PXDN Compound I, pH 7.4, 25 °C
T1 construct: the four immunoglobulin domains and the peroxidase domain (amino acid residue 246-1314); made in house; host or cells: transient transfection
T1 sequence (Q92626 246-1314): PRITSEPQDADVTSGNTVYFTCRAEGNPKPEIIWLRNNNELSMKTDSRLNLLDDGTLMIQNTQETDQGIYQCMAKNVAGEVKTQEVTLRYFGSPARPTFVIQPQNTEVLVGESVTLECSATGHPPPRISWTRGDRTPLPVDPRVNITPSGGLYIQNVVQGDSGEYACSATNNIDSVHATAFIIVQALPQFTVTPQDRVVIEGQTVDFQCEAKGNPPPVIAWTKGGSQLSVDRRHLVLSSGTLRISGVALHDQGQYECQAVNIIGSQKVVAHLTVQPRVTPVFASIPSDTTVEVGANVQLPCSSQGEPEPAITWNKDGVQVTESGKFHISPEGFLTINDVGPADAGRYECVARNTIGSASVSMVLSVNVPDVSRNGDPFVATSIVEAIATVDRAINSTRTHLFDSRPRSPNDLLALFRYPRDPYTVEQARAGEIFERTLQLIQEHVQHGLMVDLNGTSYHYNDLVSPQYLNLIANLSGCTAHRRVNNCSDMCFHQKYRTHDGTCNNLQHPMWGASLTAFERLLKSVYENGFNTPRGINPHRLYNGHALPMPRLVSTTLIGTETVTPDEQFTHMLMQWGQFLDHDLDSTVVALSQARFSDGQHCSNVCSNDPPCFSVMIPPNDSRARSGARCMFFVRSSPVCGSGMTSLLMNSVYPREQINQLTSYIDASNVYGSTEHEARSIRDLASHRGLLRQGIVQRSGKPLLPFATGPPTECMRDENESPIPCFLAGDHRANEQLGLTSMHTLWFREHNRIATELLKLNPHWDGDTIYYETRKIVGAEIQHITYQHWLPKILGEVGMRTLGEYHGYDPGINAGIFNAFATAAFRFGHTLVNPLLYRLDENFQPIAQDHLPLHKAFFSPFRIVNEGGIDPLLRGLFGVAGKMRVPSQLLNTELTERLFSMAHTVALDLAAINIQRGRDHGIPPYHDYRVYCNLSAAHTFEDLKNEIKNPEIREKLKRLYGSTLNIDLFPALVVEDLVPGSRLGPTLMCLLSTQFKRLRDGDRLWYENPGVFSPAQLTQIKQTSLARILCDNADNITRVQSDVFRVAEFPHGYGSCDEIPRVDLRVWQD
Protocol: Pre-steady-state spectra were recorded with the stopped-flow apparatus SX.18MV (Applied Photophysics Ltd, Leatherhead, UK) connected to a diode array detector (DAD), with the first spectrum recorded 14 ms after the mixing of the reactants. Due to the inherent instability of Compound I of PXDN, the sequential mixing mode was used to generate Compound I. Equal volumes of 4 μM PXDN and 4 μM hydrogen peroxide were mixed in the aging loop. […] Interconversion of redox intermediates of PXDN was monitored for 60 s. […] All reactions were performed in 100 mM phosphate buffer, pH 7.4, and at 25 °C. Time traces (410 nm to monitor Compound I and ferric PXDN, 432 nm for Compound II and 550 and 590 nm to monitor Compound III [46]) were extracted from the time-resolved spectra.

Human peroxidasin (PXDN) [3] = molecular target: T2, Human peroxidasin (PXDN) (Homo sapiens, UniProt Q92626); assay: Amplex oxidation activity assay in the presence of bromide; type: biochemical
T2 construct: the four immunoglobulin domains and the peroxidase domain (amino acid residue 246-1314); made in house; host or cells: transient transfection
T2 sequence (Q92626 246-1314): T1 sequence (Q92626 246-1314)
Protocol: (§2) A previously characterized truncated peroxidasin variant, formerly annotated as hsPxd01-con4 [46], consisting of the four immunoglobulin domains and the peroxidase domain (amino acid residue 246-1314; numbering refers to full length PXDN including the signal peptide as shown in Uniprot Q92626), was used for all experiments using PXDN protein. Cloning, transient transfection, expression and the quality control of the purified recombinant PXDN was performed routinely, as described previously. Molar concentrations are per heme and were determined using an extinction coefficient of 147,500 M^−1 cm^−1 for the heme Soret peak at 412 nm. For the conversion to mg, a molar mass of 140,000 g mol^−1 was used and calculated from the molar concentration per heme. For simplicity we will refer to this variant as peroxidasin (PXDN) throughout the manuscript.
(§3) 100 µL of 50 μM Amplex™ UltraRed and 20 μM hydrogen peroxide in 50 mM phosphate buffer pH 7.4 and the respective inhibitor at twice of its final concentration was added to a 96-well plate. […] The plate was incubated in the dark for 15 min at 37 °C before the fluorescence of resorufin, the resulting Amplex oxidation product, was detected using a SpectraMax iD3 fluorescent plate reader from Molecular Devices LLC, San Jose, CA 95134 (λex 544 nm, λem 590 nm, end point measurement). The same assay was also performed with 50 mM bromide present. To determine IC50 values, Amplex oxidation (measured as the end point as described above) was plotted versus the concentration of the inhibitor and expressed as % inhibition.

Human peroxidasin (PXDN) [4] = molecular target: T2, Human peroxidasin (PXDN); assay: Amplex oxidation activity assay in the absence of bromide; type: biochemical
Protocol: as §2, §3

Human peroxidasin (PXDN) [5] = molecular target: T2, Human peroxidasin (PXDN); assay: Reversibility of inactivation of immobilized PXDN (wash, then Amplex assay); type: biochemical; details: 10 min, washed four times; for Irreversible Inhibition: 20 μM inhibitor, then Amplex assay
Protocol: 200 ng of PXDN in 50 μL PBS was added per well of a Corning high-binding ELISA microplate for 2 h at room temperature. After four PBS washes, the respective inhibitors were added at a final concentration of 20 μM in phosphate buffer pH 7.4, before 10 μM of hydrogen peroxide was added in a final volume of 50 μL. In a control experiment, no hydrogen peroxide was added. After 10 min of incubation, the plates were washed four times with PBS and activity was measured as previously described, by adding 50 μL/well of 50 μM Amplex™ UltraRed Reagent, 20 μM hydrogen peroxide and 50 mM bromide in 50 mM phosphate buffer pH 7.4. The plate was incubated for 30 min in the dark at 37 °C before fluorescence was measured (λex 544 nm, λem 590 nm) and expressed as % activity of the untreated control.

MPO = details: literature statement; cited from earlier work
TPO = tested on: TPO; design: method as in PMID 8068644; details: cited from earlier work
[6] = tested on: collagen IV cross-link formation by PXDN; design: method as in PMID 22842973; details: cited from earlier work
Human peroxidasin (PXDN) [7] = molecular target: T2, Human peroxidasin (PXDN); assay: Dansylglycine halogenation (bromination) activity assay; type: biochemical; details: 50 nM PXDN, 100 mM bromide; for inhibition at 24 µM: 24 μM inhibitor, 50 μM DG, 200 μM hydrogen peroxide, pH 7.4
Protocol: as §2
Dansylglycine (DG) was made up fresh every day and kept in the dark at room temperature. […] We mixed 50 nM PXDN in 100 mM phosphate buffer pH 7.4 with 50 μM DG and 100 mM bromide, before the reaction was started by adding 200 μM of hydrogen peroxide to a final volume of 1.5 mL. Loss of fluorescence was monitored for 60 s using a F-7000 Hitachi (Methrom-Inula, Vienna) fluorometer (λex 340 nm, λem 550 nm). […] The loss of fluorescence was fitted linearly to determine the rate of reaction (min^−1). The effect of the inhibitors was expressed as % inhibition, relative to the rate of the halogenation activity of PXDN without an inhibitor. IC50 values were determined by varying inhibitor concentrations (0–48 μM).

LPO = tested on: LPO; design: method as in PMID 8068644; details: cited from earlier work
PFHR9 cells = assay: Tolerability / toxicity in cell culture; type: cell-based
Protocol: as §1, with “°C.” for “°C. The digest was spun (20 kg, RT, 20 min) and the extent of cross-linking of the NCD of collagen IV was determined by the resolution of the supernatant protein on a 12% sodium dodecyl-sulfate polyacrylamide gel electrophoresis (SDS-PAGE).”

[8] = 100 μM bromide, 100 μM hydrogen peroxide, 1 h 37 °C, Western blot densitometry, read-out: IC50 DECM

IC50 [1, 8]: 3700 nM
Molecule: O=C(O)CNc1ccc(Cl)cc1 [Cl-PAAA, (2-[(4-chlorophenyl)amino]-acetic acid)]
IC50 Cells [2]: toxic

IC50 [1, 8]: 12700 nM
IC50 ([2]; 168 h): ~172000 nM
Molecule: NNC(=O)CNc1ccc(Cl)cc1 [Cl-PAAH, (2-[(4-chlorophenyl)amino]-acetohydrazide)]

Mechanism or Reaction Steady and Pre-Steady State Spectrophotometry (PXDN Compound I): Good substrate for CI and CII
inhibition at 20 µM (Human peroxidasin (PXDN) [3]; 20 μM inhibitor, 50 mM bromide): 25 to 70%
IC50 (Human peroxidasin (PXDN) [4]): 10 nM
Molecule: NCCc1ccc(O)c(O)c1 [Dopamine]

IC50 [1, 8]: 155000 nM
Irreversible Inhibition (Human peroxidasin (PXDN) [5]): no
inhibition of PXDN remaining after washing (Human peroxidasin (PXDN) [5]; immobilized PXDN, 20 μM inhibitor without or with 10 μM hydrogen peroxide): no statistically significant difference
Mechanism or Reaction Steady and Pre-Steady State Spectrophotometry (PXDN Compound I): forms Compound III
IC50 (Human peroxidasin (PXDN) [3]): 900 nM
inhibition at 20 µM (Human peroxidasin (PXDN) [3]; 20 μM inhibitor, 50 mM bromide): 90%
IC50 (Human peroxidasin (PXDN) [4]): 2400 nM
IC50 Cells [2]: ineffective
Molecule: NNC(=O)CNc1ccccc1F [F-PAAH, 2-[(2-fluorophenyl)amino]-acetohydrazide]

IC50 [1, 8]: 950 nM
IC50 ([1]; read-out: IC50 inhibition of collagen IV cross-link formation in ECM model): ~950 nM
Irreversible Inhibition (Human peroxidasin (PXDN) [5]): yes
inhibition at 20 µM (Human peroxidasin (PXDN) [5]; immobilized PXDN, 20 μM inhibitor without or with 10 μM hydrogen peroxide, read-out: inhibition of PXDN remaining after washing): > 95%
Mechanism or Reaction Steady and Pre-Steady State Spectrophotometry (PXDN Compound I): Adduct formation or tight ligand binding
inhibition at 24 µM (Human peroxidasin (PXDN) [7]): 97 to 99%
IC50 (Human peroxidasin (PXDN) [3]): 948 nM
inhibition at 20 µM (Human peroxidasin (PXDN) [3]; 20 μM inhibitor, 50 mM bromide): > 95%
IC50 (Human peroxidasin (PXDN) [4]): 137 nM
inhibition at 20 µM (Human peroxidasin (PXDN) [4]; 20 μM inhibitor, without bromide): > 95%
Molecule: Oc1cc(O)cc(O)c1 [Phloroglucinol, 1,3,5-Trihydroxybenzene]
inhibition of MPO (MPO): not to be inhibited
inhibition of TPO (TPO): potently inhibits
IC50 ([6]; read-out: IC50 inhibition of collagen IV cross-linking, previously published value): 500 nM
inhibition of LPO (LPO): potently inhibits
tolerability in cell culture (PFHR9 cells): well tolerated in cell culture and does not impact cell proliferation

Mechanism or Reaction Steady and Pre-Steady State Spectrophotometry (PXDN Compound I): Good substrate for CI and CII
inhibition at 20 µM (Human peroxidasin (PXDN) [3]; 20 μM inhibitor, 50 mM bromide): 25 to 70%
IC50 (Human peroxidasin (PXDN) [4]): 200 nM
Molecule: COc1ccc2c(C)nc(N=C(N)N)nc2c1 [Quinazoline, 2-(7-methoxy-4-methylquinazoline-2-yl)guanidine]

inhibition at 24 µM (Human peroxidasin (PXDN) [7]): 97 to 99%
IC50 (Human peroxidasin (PXDN) [7]; inhibitor 0–48 μM, read-out: IC50 Halogenation Dansylglycin): 1800 nM
enhancement of Amplex oxidation (Human peroxidasin (PXDN) [4]; 20 μM compound, without bromide): about 50%
Molecule: CSc1ccc2c(c1)N(CCC1CCCCN1C)c1ccccc1S2 (stereo not shown) [Thioridazine]
Mechanism or Reaction Steady and Pre-Steady State Spectrophotometry (PXDN Compound I): Good substrate for CI, not a substrate for CII
inhibition of Amplex oxidation in the presence of bromide (Human peroxidasin (PXDN) [3]; 20 μM inhibitor, 50 mM bromide): neither activation of Amplex oxidation, nor much inhibition

Molecule: Cn1cc[nH]c1=S [methimazole]
inhibition of collagen IV cross-link formation by PXDN [6]: potently inhibits

Molecule: (E)-2-methoxy-4-((2-phtalazine-1yl)hydrazono)methyl)phenol [Hydralazine-vanillin]
Mechanism or Reaction Steady and Pre-Steady State Spectrophotometry (PXDN Compound I): good peroxidation substrates
